Laboratory results taken from patent publication US20230192617A1, “AZABICYCLIC(THIO)AMIDES AS FUNGICIDAL COMPOUNDS” (Bayer CropScience Aktiengesellschaft, priority 2020, published 2023).

Legend:
[1] = tested on: Colletotrichum lindemuthianum; assay: B-8. Colletotrichum lindemuthianum in vitro cell test; type: cell-based; conditions: 144 h, 20 ppm of active ingredient, 6 days incubation, liquid culture, absorbance, read-out: efficacy (inhibition of fungal growth)
Procedure, shortened: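 Liquid-culture germination/growth test: compounds in ≤1% final DMSO were added to spore-containing medium. Fungal growth was quantified spectrophotometrically after 6 days of incubation and expressed as inhibition versus untreated controls.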

Sphaerotheca fuliginea = assay: In vivo preventive test on Sphaerotheca fuliginea (powdery mildew on cucurbits); conditions: Podosphaera fuliginea, 192 h; 500 ppm of active ingredient; preventive spray on gherkin; evaluated 8 days after inoculation; read-out: efficacy
Procedure, shortened: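 This is a preventive spray test on gherkin seedlings, with compound formulated in DMSO/acetone/Tween 80 in water and solvent-only controls. Spore inoculation followed one day after treatment. Incubation lasted 8 days at 20 °C, 70–80% RH.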

[2] = tested on: Colletotrichum lindemuthianum; assay: In vivo preventive test on Colletotrichum lindemuthianum (leaf spot on bean); conditions: 168 h, 500 ppm of active ingredient, preventive spray on bean, evaluated 7 days after inoculation, read-out: efficacy
Description: B-5. In Vivo Preventive Test on Colletotrichum lindemuthianum (Leaf Spot on Bean) [table] The active ingredients were made soluble and homogenized in a mixture of Dimethyl sulfoxide/Acetone/Tween® 80 and then diluted in water to the desired concentration. The young plants of bean were treated by spraying the active ingredient prepared as described above. Control plants were treated only with an aqueous solution of Acetone/Dimethyl sulfoxide/Tween® 80. After 24 hours, the plants were contaminated by spraying the leaves with an aqueous suspension of Colletotrichum lindemuthianum spores. The contaminated bean plants were incubated for 24 hours at 20° C. and at 100% relative humidity and then for 6 days at 20° C. and at 90% relative humidity.

[3] = Measurement of Log P values by HPLC on reversed phase columns (EEC directive 79/831 Annex V.A8); type: physicochemical; conditions: method [a]: LC-UV, acidic range, 0.1% formic acid in water and acetonitrile as eluent
Procedure, shortened: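 Log P derived from retention on reversed-phase columns (EEC directive 79/831 Annex V.A8), LC-UV, acetonitrile gradient 10% to 95% against water containing 0.1% formic acid, 0.001 M ammonium acetate, or 0.1% phosphoric acid; several values per method separated by "+".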

Botrytis cinerea [4] = assay: In vivo preventive test on Botrytis cinerea (grey mould); conditions: 500 ppm of active ingredient, preventive spray on gherkin or cabbage, evaluated 4 to 5 days after inoculation, read-out: efficacy
Procedure, shortened: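 Preventive spray on cabbage or gherkin seedlings, with compound formulated in DMSO/acetone/Tween 80 and water-diluted, preceded spore inoculation by 24 hours. Cabbage was held 4 to 5 days at 20° C., 100% relative humidity; gherkin 4 to 5 days at 17° C., 90% relative humidity.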

Alternaria alternata = Alternaria alternata in vitro cell test; type: cell-based; conditions: 120 h, 20 ppm of active ingredient, liquid culture, 5 days incubation, spectrometric measurement of mycelium growth, read-out: efficacy (inhibition of fungal growth)
Procedure, shortened: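 Spectrometric readout of mycelial growth after 5-day incubation gauged compound effects on spore germination and growth of A. alternata in liquid medium. Compounds were delivered in DMSO at ≤1% final. Absorbance was compared with untreated controls to give inhibition.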

Botrytis cinerea [5] = assay: B-11. Botrytis cinerea in vitro cell test; type: cell-based; conditions: 144 h, 20 ppm of active ingredient, 6 days incubation, liquid culture, absorbance, read-out: efficacy (inhibition of fungal growth)
Procedure, shortened: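 B. cinerea spores were grown in liquid culture with compound (DMSO ≤1% final). Mycelium growth was measured spectrometrically after 6 days, with inhibition taken as absorbance relative to untreated control wells.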

Alternaria brassicae = assay: In vivo preventive test on Alternaria brassicae (leaf spot on radish or cabbage); conditions: 500 ppm of active ingredient, preventive spray on radish or cabbage, evaluated 3 to 4 days after inoculation, read-out: efficacy
Procedure, shortened: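 Protective spray on young radish or cabbage: actives in water diluted from DMSO/acetone/Tween 80, with solvent-only controls. Leaves were challenged after 24 h with a spore suspension, and plants were held at 100% RH, 20 °C for 3 to 4 days.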

Pyrenophora teres [6] = assay: B-10. Pyrenophora teres in vitro cell test; type: cell-based; conditions: 144 h, 20 ppm of active ingredient, 6 days incubation, liquid culture, absorbance, read-out: efficacy (inhibition of fungal growth)
Procedure, shortened: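 Liquid-culture assay on a P. teres spore suspension with compounds added to the medium from DMSO solutions, final DMSO ≤1%. Mycelium growth read spectrometrically after 6 days. Inhibition calculated from absorbance against untreated control wells.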

Pyrenophora teres [7] = assay: In vivo preventive test on Pyrenophora teres (net blotch on barley); conditions: 240 h, 500 ppm of active ingredient, preventive spray on barley, evaluated 10 days after inoculation, read-out: efficacy
Description: B-3. In Vivo Preventive Test on Pyrenophora Teres (Net Blotch on Barley) [table] The active ingredients were made soluble and homogenized in a mixture of Dimethyl sulfoxide/Acetone/Tween® 80 and then diluted in water to the desired concentration. The young plants of barley were treated by spraying the active ingredient prepared as described above. Control plants were treated only with an aqueous solution of Acetone/Dimethyl sulfoxide/Tween® 80. After 24 hours, the plants were contaminated by spraying the leaves with an aqueous suspension of Pyrenophora teres spores. The contaminated barley plants were incubated for 48 hours at 20° C. and at 100% relative humidity and then for 8 days at 20° C. and at 70-80% relative humidity.

Row | SMILES | inhibition at 20 ppm [1] | pest or weed control at 500 ppm (Sphaerotheca fuliginea) | pest or weed control at 500 ppm [2] | chromatographic logP ([3]; reversed phase HPLC column) | pest or weed control at 500 ppm (Botrytis cinerea [4]) | inhibition at 20 ppm (Alternaria alternata) | inhibition at 20 ppm (Botrytis cinerea [5]) | pest or weed control at 500 ppm (Alternaria brassicae) | inhibition at 20 ppm (Pyrenophora teres [6]) | pest or weed control at 500 ppm (Pyrenophora teres [7]) | chromatographic logP [3]
1 | Cc1ccc([C@@H](F)CNC(=O)c2c(Oc3cccc(C(F)(F)F)c3)cnc3ccccc23)c(Cl)c1 (racemic) [I-060] | 90 to 100% | 90 to 100% | 90 to 100% | 4.4 | 90 to 100% | 90 to 100% | 90 to 100% | 90 to 100% |  |  | 
2 | Cc1ccc(C(F)(F)CNC(=O)c2c(Oc3cccc(C(F)(F)F)c3)nnc3cc(F)ccc23)c(Cl)c1 [I-171] | 90 to 100% |  |  | 4.66 |  | 90 to 100% | 90 to 100% | 90 to 100% | 90 to 100% | 70 to 79% | 
3 | Cc1cccc(Oc2nnc3ccccc3c2C(=O)NCC(F)(F)c2ccc(C)cc2C)c1 [I-017] | 90 to 100% | 90 to 100% |  | 4.11 | 90 to 100% | 90 to 100% |  | 90 to 100% |  | 70 to 79% | 
4 | Cc1ccc(C(F)(F)CNC(=O)c2c(Oc3cccc(C(F)(F)F)c3)nnc3c2CC(O)CC3)c(C)c1 (centres unmarked) [I-117] | 90 to 100% | 90 to 100% | 90 to 100% | 3.18 | 90 to 100% | 90 to 100% | 90 to 100% | 70 to 79% |  |  | 
5 | O=C(NCCc1ccc2c(c1)OCCO2)c1c(Oc2cccc(C(F)(F)F)c2)nnc2ccccc12 [I-086] | 90 to 100% |  | 90 to 100% |  | 90 to 100% | 90 to 100% | 90 to 100% | 90 to 100% | 90 to 100% |  | 3.42
6 | O=C(NCC(F)c1ccc(Cl)cc1Cl)c1c(Oc2cccc(C(F)(F)F)c2)nnc2c1OCCO2 (racemic) [I-101, N-[2-(2,4-dichlorophenyl)-2-fluoro-ethyl]-3-[3-(trifluoro-methyl)phenoxy]-6,7-dihydro-[1,4]dioxino[2,3-c]pyridazine-4-carboxamide] | 80 to 89% | 90 to 100% | 90 to 100% | 3.37 | 90 to 100% | 90 to 100% |  | 90 to 100% |  |  | 
7 | Cc1ccc([C@@H](F)CNC(=O)c2c(Oc3cccc(Cl)c3)nnc3ccccc23)c(Cl)c1 (racemic) [I-052] | 90 to 100% | 90 to 100% | 90 to 100% | 4.19 | 90 to 100% | 90 to 100% | 90 to 100% | 90 to 100% |  |  | 
8 | C=Cc1ccc(C(F)(F)CNC(=O)c2c(Oc3cccc(C(F)(F)F)c3)nnc3ccccc23)c(Cl)c1 [I-064] | 90 to 100% |  |  | 4.62 | 90 to 100% | 90 to 100% | 90 to 100% | 90 to 100% |  | 80 to 89% | 
9 | Cc1cc(C(F)F)ccc1[C@@H](F)CNC(=O)c1c(Oc2cccc(Cl)c2)nnc2ccccc12 (racemic) [I-049] | 90 to 100% |  |  | 3.84 | 90 to 100% | 90 to 100% | 90 to 100% | 90 to 100% |  | 80 to 89% | 
10 | Cc1cc(Cl)ccc1[C@@H](F)CNC(=O)c1c(Oc2cccc(C(F)(F)F)c2)cnc2ccccc12 (racemic) [I-061] | 90 to 100% | 90 to 100% | 70 to 79% | 4.47 | 90 to 100% | 90 to 100% | 90 to 100% | 90 to 100% |  |  | 
11 | C=Cc1cccc(Oc2cnc3ccccc3c2C(=O)NCC(F)(F)c2ccc(C)cc2C)c1 [I-221] | 90 to 100% |  | 70 to 79% | 4.4 | 90 to 100% | 90 to 100% | 90 to 100% | 90 to 100% | 90 to 100% |  | 
12 | CCN(CCc1ccccc1)C(=O)c1c(Oc2cccc(C(F)(F)F)c2)nnc2ccccc12 [I-205] |  | 70 to 79% |  | 4.28 | 80 to 89% |  |  |  |  | 80 to 89% | 
13 | O=C(NCC(F)(F)c1ccc(Br)cc1Cl)c1c(Oc2cccc(C(F)(F)F)c2)nnc2c1OCCO2 [I-103] | 90 to 100% | 90 to 100% | 80 to 89% | 3.6 | 90 to 100% | 90 to 100% |  | 80 to 89% |  |  | 
14 | Cc1ccc(C(F)(F)CNC(=O)c2c(Oc3cccc(C(F)(F)F)c3)nnc3cnccc23)c(C)c1 [I-162] | 90 to 100% |  |  | 4.15 |  | 90 to 100% | 90 to 100% | 90 to 100% | 90 to 100% | 70 to 79% | 
15 | Cc1ccc2c(C(=O)NC[C@H](F)c3ccc(Br)cc3Cl)c(Oc3cccc(C(F)(F)F)c3)nnc2c1 (racemic) [I-046] | 90 to 100% | 90 to 100% | 90 to 100% | 4.57 | 90 to 100% | 90 to 100% |  | 90 to 100% |  |  | 
16 | Cc1ccc(C(F)(F)CNC(=O)c2c(Oc3cccc(C(F)(F)F)c3)nnc3c2OCCO3)c(C)c1 [I-106] | 90 to 100% | 90 to 100% | 90 to 100% | 3.37 | 90 to 100% | 90 to 100% |  | 90 to 100% |  |  | 
17 | Cc1ccc([C@H](C)NC(=O)c2c(Oc3cccc(C(F)(F)F)c3)nnc3c2OCCO3)cc1 (racemic) [I-102] | 90 to 100% | 90 to 100% | 90 to 100% | 3.02 | 90 to 100% | 90 to 100% |  | 90 to 100% |  |  | 
18 | Cc1ccc([C@@H](F)CNC(=O)c2c(Oc3cccc(C(F)(F)F)c3)cnc3ccccc23)cc1C (racemic) [I-056] | 90 to 100% | 90 to 100% | 90 to 100% | 4.33 | 90 to 100% | 90 to 100% | 90 to 100% | 90 to 100% |  |  | 
19 | O=C(NC[C@H](F)c1ccc(Br)cc1Cl)c1c(Oc2cccc(C(F)(F)F)c2)nnc2c1OCCO2 (racemic) [I-105] | 90 to 100% | 90 to 100% | 90 to 100% | 3.48 | 90 to 100% | 90 to 100% |  | 90 to 100% |  |  | 
